Measurements: patent US5968967A, “Pyrazolones derivatives” (Nissan Chemical Industries, Ltd., priority 1995, dated 1999)
Structures can show the parent of a compound that is named as a salt. Where two headings read alike, the source gives them in different places.

System: Guinea-pig PRP (platelet aggregation)
Assay: (A) In vitro antiplatelet aggregation effect in guinea pigs (PRP), Table IV-1
Type: cell-based, guinea pig (Hartley male)
Details: Cavia porcellus, PRP 300,000/mm^3, 37° C.
Protocol: Nine parts by volume of blood was collected from the abdominal artery of Hartley male guinea-pigs (weight: about 300 g) in syringes containing 1 part by volume of 3.8% sodium citrate. The blood thus obtained was centrifuged at 200×g for 10 minutes at room temperature to obtain platelet rich plasma (PRP). Furthermore, the residue was centrifuged at 2000×g for 15 minutes to obtain platelet poor plasma (PPP). The measurement was effected by diluting PRP with PPP to 300,000/mm^3. PRP and PPP were put in cuvettes, and the measurement range of transmittance was adjusted to 0% in the case of PRP and to 100% in the case of PPP. Thereafter, a test sample drug dissolved in H2 O:MeOH (1:2) was added to PRP. After the PRP was incubated at 37° C. at 1000 rpm for 2 minutes, an aggregating agent was added to record an aggregation curve. The antiplatelet aggregation effect of the test sample drug was expressed by the concentration (IC50 : μM) at which the aggregation of the control sample was 50% inhibited. […] The measurement of platelet aggregation was carried out by using NBS HEMA TRACER 601.
In vitro antiplatelet aggregation tests; (A) and (B) Tables IV-1 and 2 show antiplatelet aggregation effects of test compounds evaluated as IC50 values (μM). The compound Nos. in Table I should be referred to for the structures of the compounds.

[1] = aggregating agent ADP, read-out: Guinea-pig PRP IC50, ADP
[2] = aggregating agent collagen 1 to 2 μg/ml, read-out: Guinea-pig PRP IC50, Collagen

CCOC(=O)COCCNC(=O)c1c(-c2ccc(C(C)(C)C)cc2)n(C)n(-c2ccc(C(=N)N)cc2)c1=O [compound 25]
IC50 [1]: 43 µM
IC50 [2]: 20 µM

CCOC(=O)COCCN(C)C(=O)c1c(-c2ccccc2)n(C)n(-c2ccc(C(=N)N)cc2)c1=O [compound 15]
IC50 [1]: 114 µM
IC50 [2]: 57 µM

CCOC(=O)CN1CCC(N(C)C(=O)c2c(-c3ccc(C(C)(C)C)cc3)n(C)n(-c3ccc(C(=N)N)cc3)c2=O)CC1 [compound 112]
IC50 [1]: 37 µM
IC50 [2]: 14 µM

CCOC(=O)CN(C=O)C1CCN(C(=O)c2c(-c3ccc(C(C)(C)C)cc3)n(C)n(-c3ccc(C(=N)N)cc3)c2=O)CC1 [compound 114]
IC50 [1]: 21 µM
IC50 [2]: 14 µM

CCOC(=O)COCCNC(=O)c1c(-c2ccc(-c3ccccc3)cc2)n(C)n(-c2ccc(C(=N)N)cc2)c1=O [compound 20]
IC50 [1]: 30 µM
IC50 [2]: 12 µM

CCOC(=O)CN(C)C1CCN(C(=O)c2c(-c3ccc(C(C)(C)C)cc3)n(C)n(-c3ccc(C(=N)N)cc3)c2=O)CC1 [compound 116]
IC50 [2]: 90 µM

CCOC(=O)COC1CCN(C(=O)c2c(-c3ccc(-c4ccccc4)cc3)n(C)n(-c3ccc(C(=N)N)cc3)c2=O)CC1 [compound 23]
IC50 [1]: 17 µM
IC50 [2]: 9.3 µM

CCOC(=O)COC1CCN(C(=O)c2cn(C)n(-c3ccc(C(=N)N)cc3)c2=O)CC1 [Compound No. 11]
IC50 [1]: 31 µM
IC50 [2]: 17 µM

Cn1c(-c2ccc(C(C)(C)C)cc2)c(C(=O)N2CCC(OCC(=O)O)CC2)c(=O)n1-c1ccc(C(=N)N)cc1 [Compound No. 28, 1-(4-amidinophenyl)-3-(4-t-butylphenyl)-4-([4-(carboxymethyloxy)-1-piperidinyl]carbonyl}-2-methyl-2H-pyrazol-5-one hydrochloride]
IC50 [1]: 25 µM
IC50 [2]: 17 µM

CN(C(=O)c1c(-c2ccc(C(C)(C)C)cc2)n(C)n(-c2ccc(C(=N)N)cc2)c1=O)C1CCN(CC(=O)O)CC1 [compound 111]
IC50 [1]: 11 µM
IC50 [2]: 8.1 µM

Cn1cc(C(=O)NCCCOCC(=O)O)c(=O)n1-c1ccc(C(=N)N)cc1 [compound 7]
IC50 [1]: 300 µM

Cn1c(-c2ccc(C(C)(C)C)cc2)c(C(=O)NCCOCC(=O)O)c(=O)n1-c1ccc(C(=N)N)cc1 [compound 24]
IC50 [1]: 46 µM
IC50 [2]: 19 µM

CCOC(=O)COC1CCN(C(=O)c2c(-c3ccc(-c4ccc(Cl)cc4)cc3)n(C)n(-c3ccc(C(=N)N)cc3)c2=O)CC1 [Compound No. 2]
IC50 [1]: 8.1 µM
IC50 [2]: 3.9 µM

Cn1c(-c2ccccc2)c(C(=O)N2CCC(OCC(=O)O)CC2)c(=O)n1-c1ccc(C(=N)N)cc1 [compound 17]
IC50 [1]: 20 µM
IC50 [2]: 23 µM

Cn1c(-c2ccc(C(C)(C)C)cc2)c(C(=O)NC2CCN(CC(=O)O)CC2)c(=O)n1-c1ccc(C(=N)N)cc1 [compound 109]
IC50 [1]: 3.4 µM
IC50 [2]: 4 µM

Cn1c(-c2ccc(-c3ccccc3)cc2)c(C(=O)NC2CCN(CC(=O)O)CC2)c(=O)n1-c1ccc(C(=N)N)cc1 [compound 125]
IC50 [1]: 42 µM
IC50 [2]: 4.2 µM

CCCCc1ccc(-c2c(C(=O)N3CCC(OCC(=O)OCC)CC3)c(=O)n(-c3ccc(C(=N)N)cc3)n2C)cc1 [compound 128]
IC50 [1]: 20 µM
IC50 [2]: 7.1 µM

CCOC(=O)CN1CCC(NC(=O)c2c(-c3ccc(-c4ccccc4)cc3)n(C)n(-c3ccc(C(=N)N)cc3)c2=O)CC1 [compound 126]
IC50 [1]: 76 µM
IC50 [2]: 7.6 µM

CN(CC(=O)O)C1CCN(C(=O)c2c(-c3ccc(C(C)(C)C)cc3)n(C)n(-c3ccc(C(=N)N)cc3)c2=O)CC1 [compound 115]
IC50 [1]: 93 µM
IC50 [2]: 68 µM

Cn1cc(C(=O)N2CCC(OCC(=O)O)CC2)c(=O)n1-c1ccc(C(=N)N)cc1 [Compound No. 10]
IC50 [1]: 35 µM
IC50 [2]: 17 µM

CCOC(=O)CN1CCC(NC(=O)c2c(-c3ccc(C(C)(C)C)cc3)n(C)n(-c3ccc(C(=N)N)cc3)c2=O)CC1 [compound 110]
IC50 [1]: 5 µM
IC50 [2]: 3.1 µM
